Consider 2 compounds from patent US8614235B2, “CAI-based systems and methods for the localized treatment of ocular and other diseases” (RFE Pharma LLC, priority 2004, dated 2013).

The conditions of data set [1]: cited from earlier work.
Data set [2] concerns neovascularization. The experiment in a line: Contemplated clinical cases, local ocular CAI against neovascularization. It counts as in vivo. From the text:
The following contemplated clinical cases of angiogenesis are presented as examples of methods of treatment and not as limitations. Other illustrations of treating systemic or localized angiogenesis are not presented, since the principles involved are similar, and will be apparent to the skilled reader based upon review of an individual's clinical manifestation and the preferred embodiments of the inventive compositions.

The conditions of data set [3]: in vivo; cited from earlier work.
For data set [4] the following is noted: patients; cited from earlier work.
The conditions of data set [5]: single 5 mg peribulbar injection in humans; cited from earlier work.

`NC(=O)c1nnn(Cc2cc(Cl)c(C(=O)c3ccc(Cl)cc3)c(Cl)c2)c1N` [CAI]: the “toxic effects observed in clinical studies” value in data set [1] (systemic oral dosing, doses required for effective circulating levels) is “cerebellar ataxia, peripheral neuropathy and exacerbation of depression”. The “serious side effect of clinical use by systemic administration” value in data set [1] (two cases described (Berlin et al. 2002)) is given as “loss of vision”. Also, the neovascular regression result in data set [2] (Example 9, proliferative diabetic retinopathy, intravitreal 50 mcg) is on record as “some neovascular regression”; in data set [2] (Example 10, subfoveal membrane, intravitreal 200 mcg then periocular sustained release solution), “neovascular regression occurs”. Moreover, in data set [3], the serum half-life is 111 h. In data set [4], the “plasma concentrations associated with unacceptable toxicity” value is “above 100 micromolar”.

With `C[C@@H]1C[C@H]2[C@@H]3CCC4=CC(=O)C=C[C@]4(C)[C@@]3(F)[C@@H](O)C[C@]2(C)[C@@]1(O)C(=O)CO` [Dexamethasone], the “dexamethasone detected in the vitreous cavity” value in data set [5] was 13 ng/mL.
